The results in this text go back to patent publication US9314026B2, “Heterocyclylpyri(mi)dinylpyrazole” (Bayer Intellectual Property GmbH, priority 2011, dated 2016).

Where two headings read alike, the source gives them in different places.

The subject of data set [1] is Alternaria solani. As to the kind of experiment: Alternaria test (tomato)/preventive. In kind it is in vivo. The note with it: 168 h, 500 ppm of active ingredient, preventive, evaluated 7 days after inoculation, read-out: efficacy. The method, then: Alternaria Test (Tomato)/Preventive Solvent: 49 parts by weight of N,N-Dimethylformamide Emulsifier: 1 part by weight of Alkylarylpolyglycolether To produce a suitable preparation of active compound, 1 part by weight of active compound is mixed with the stated amounts of solvent and emulsifier, and the concentrate is diluted with water to the desired concentration. To test for preventive activity, young plants are sprayed with the preparation of active compound at the stated rate of application. One day after this treatment, the plants are inoculated with an aqueous spore suspension of Alternaria solani. […] Then the plants are placed in an incubation cabinet at approximately 20° C. and a relative atmospheric humidity of 96%.

Data set [2] relates to Leptosphaeria nodorum. As to the kind of experiment: Leptosphaeria test (wheat)/preventive. Particulars: Parastagonospora nodorum, 500 ppm of active ingredient, preventive, evaluated 7-9 days after inoculation, read-out: efficacy. The data set is classed as in vivo. Here is the method: (§1) Leptosphaeria Test (Wheat)/Preventive Solvent: 49 parts by weight of N,N-Dimethylformamide Emulsifier: 1 part by weight of Alkylarylpolyglycolether To produce a suitable preparation of active compound, 1 part by weight of active compound is mixed with the stated amounts of solvent and emulsifier, and the concentrate is diluted with water to the desired concentration. To test for preventive activity, young plants are sprayed with a preparation of active compound at the stated rate of application. One day after this treatment, the plants are inoculated with an aqueous spore suspension of Leptosphaeria nodorum.

In data set [3] the test system is Sphaerotheca fuliginea. Description: Sphaerotheca test (cucumber)/preventive. The data set is classed as in vivo. The note with it: Podosphaera fuliginea, 168 h, 500 ppm of active ingredient, preventive, evaluated 7 days after inoculation, 0% = untreated control, 100% = no disease, read-out: efficacy. The method, then:
as §1, with “Sphaerotheca Test (Cucumber)/Preventive” for “Leptosphaeria Test (Wheat)/Preventive”, “Sphaerotheca Test (Cucumber)/Preventive Solvent: 49” for “Leptosphaeria Test (Wheat)/Preventive Solvent: 49”, “sprayed with the preparation of” for “sprayed with a preparation of”, “suspension of Sphaerotheca fuliginea.” for “suspension of Leptosphaeria nodorum.”

Data set [4] is described as follows: determination of the log P values by HPLC on a reverse phase column (C18), EEC-Directive 79/831 Annex V.A8. The data set is classed as physicochemical. Here is the method:
Method A Note on the determination of the log P values and mass detection: The stated log P values were determined in accordance with EEC-Directive 79/831 Annex V.A8 by HPLC (High Performance Liquid Chromatography) on a reverse phase column (C18). […] The mass detection was effected with an […] system. Method B Note on the determination of the log P values and mass detection: The stated log P values were determined in accordance with EEC-Directive 79/831 Annex V.A8 by HPLC (High Performance Liquid Chromatography) on a reverse phase column (C18). […] The mass detection was effected with the Micronass ZQ2000 mass detector from Waters. Method C Note on the determination of the log P values and mass detection: The stated log P values were determined in accordance with EEC-Directive 79/831 Annex V.A8 by UPLC (Ultra Performance Liquid Chromatography) on a reverse phase column (C18). […] The mass detection was effected with the LCT Premier or SQD mass detector from Waters.

For data set [5], the system named is Pyrenophora teres. As to the kind of experiment: Pyrenophora test (barley)/preventive. In kind it is in vivo. The note with it: 500 ppm of active ingredient, preventive, evaluated 7-9 days after inoculation, read-out: efficacy. The method, then: as §1, with “Pyrenophora Test (Barley)/Preventive” for “Leptosphaeria Test (Wheat)/Preventive”, “Pyrenophora Test (Barley)/Preventive Solvent: 49” for “Leptosphaeria Test (Wheat)/Preventive Solvent: 49”, “sprayed with the preparation of” for “sprayed with a preparation of”, “suspension of Pyrenophora teres.” for “suspension of Leptosphaeria nodorum.”

As usually defined, the chromatographic logP is lipophilicity estimated from chromatographic retention. Low readings indicate lower lipophilicity, high ones higher lipophilicity. For `CC(C)CC(=O)N(C(=O)CC(C)C)c1cc(-c2c(-c3ccc(F)cc3)nn3c2CCOC3C)ccn1` (stereo not shown) [Example 13, N-{4-[2-(4-fluorophenyl)-7-methyl-4,5-dihydropyrazolo[1,5-c][1,3]oxazin-3-yl]pyridin-2-yl}-3-methyl-N-(3-methylbutanoyl)butanamide], the pest or weed control at 500 ppm in data set [1] is 78%; in data set [2] it was 89%; in data set [3] it was 93%; in data set [5], 89%. The chromatographic logP in data set [4] is 5.01.

Take `CC1CCn2nc(-c3ccccc3)c(-c3ccnc(NC(=O)CC4CC4)c3)c21` (stereo not shown) [[XI-11], 2-cyclopropyl-N-[4-(4-methyl-2-phenyl-5,6-dihydro-4H-pyrrolo[1,2-b]pyrazol-3-yl)pyridin-2-yl]acetamide]: the chromatographic logP in data set [4] (pH 2.3) was determined as 2.32. `CCC(=O)Nc1cc(-c2c(-c3csc(Cl)c3)nn3c2CCC3)ccn1` [[XI-12], N-{4-[2-(5-chloro-3-thienyl)-5,6-dihydro-4H-pyrrolo[1,2-b]pyrazol-3-yl]pyridin-2-yl}propanamide] came in with a chromatographic logP in data set [4] (pH 2.3) of 1.95. On the same count and under the same terms, the same measure for `O=C(CC1CC1)Nc1cc(-c2c(-c3ccc(F)cc3)nn3c2CCC3)ccn1` [[XI-13], 2-cyclopropyl-N-{4-[2-(4-fluorophenyl)-5,6-dihydro-4H-pyrrolo[1,2-b]pyrazol-3-yl]pyridin-2-yl}acetamide]: 2.08; for `O=C(Nc1cc(-c2c(-c3ccc(F)cc3)nn3c2CCC3)ccn1)C1CCC1` [[XI-14], N-{4-[2-(4-fluorophenyl)-5,6-dihydro-4H-pyrrolo[1,2-b]pyrazol-3-yl]pyridin-2-yl}cyclobutanecarboxamide]: 2.08; for `CC(C)CC(=O)Nc1cc(-c2c(-c3ccc(F)cc3)nn3c2CCC3)ccn1` [[XI-15], N-{4-[2-(4-fluorophenyl)-5,6-dihydro-4H-pyrrolo[1,2-b]pyrazol-3-yl]pyridin-2-yl}-3-methylbutanamide]: 2.2. On the same count and under the same terms, the same measure for `CCC(=O)Nc1cc(-c2c(-c3ccc(F)cc3)nn3c2CCC3CC)ccn1` (stereo not shown) [[XI-16], N-{4-[6-ethyl-2-(4-fluorophenyl)-5,6-dihydro-4H-pyrrolo[1,2-b]pyrazol-3-yl]pyridin-2-yl}propanamide]: 2.3; for `CCC(C)C(=O)Nc1cc(-c2c(-c3ccc(F)cc3)nn3c2CCC3)ccn1` (stereo not shown) [[XI-17], N-{4-[2-(4-fluorophenyl)-5,6-dihydro-4H-pyrrolo[1,2-b]pyrazol-3-yl]pyridin-2-yl}-2-methylbutanamide]: 2.23. Take `COCC(=O)Nc1cc(-c2c(-c3ccc(F)cc3)nn3c2CC(C)C3)ccn1` (stereo not shown) [[XI-18], N-{4-[2-(4-fluorophenyl)-5-methyl-5,6-dihydro-4H-pyrrolo[1,2-b]pyrazol-3-yl]pyridin-2-yl}-2-methoxyacetamide]: in data set [4] (pH 2.3), the chromatographic logP was 2.3. Compound `CCC(=O)Nc1cc(-c2c(-c3ccc(F)cc3)nn3c2C(OC)CC3)ccn1` (stereo not shown) [[XI-19], N-{4-[2-(4-fluorophenyl)-4-methoxy-5,6-dihydro-4H-pyrrolo[1,2-b]pyrazol-3-yl]pyridin-2-yl}propanamide] came in with a chromatographic logP in data set [4] (pH 2.3) of 1.72. Compound `O=C(Nc1cc(-c2c(-c3csc(Cl)c3)nn3c2CCC3)ccn1)C1CC1` [[XI-20], N-{4-[2-(5-chloro-3-thienyl)-5,6-dihydro-4H-pyrrolo[1,2-b]pyrazol-3-yl]pyridin-2-yl}cyclopropanecarboxamide] had a chromatographic logP in data set [4] (pH 2.3) of 2.02. In data set [4] (pH 2.3), `CC(C)C(=O)Nc1cc(-c2c(-c3csc(Cl)c3)nn3c2CCC3)ccn1` [[XI-21], N-{4-[2-(5-chloro-3-thienyl)-5,6-dihydro-4H-pyrrolo[1,2-b]pyrazol-3-yl]pyridin-2-yl}-2-methylpropanamide] displayed a chromatographic logP of 2.24. On the same count and under the same terms, in the case of `CC1Cc2c(-c3ccnc(NC(=O)CC4CC4)c3)c(-c3ccc(F)cc3)nn2C1` (stereo not shown) [[XI-22], 2-cyclopropyl-N-{4-[2-(4-fluorophenyl)-5-methyl-5,6-dihydro-4H-pyrrolo[1,2-b]pyrazol-3-yl]pyridin-2-yl}acetamide] it was 2.36; in that of `CC1OCCc2c(-c3ccnc(NC(=O)C4CC4)c3)c(-c3ccc(F)cc3)nn21` (stereo not shown) [[XI-23], N-{4-[2-(4-fluorophenyl)-7-methyl-4,5-dihydropyrazolo[1,5-c][1,3]oxazin-3-yl]pyridin-2-yl}cyclopropanecarboxamide], 2.33; in that of `O=C(Nc1cc(-c2c(-c3ccc(F)cc3)nn3c2CCC3)ccn1)C1CCOC1` (stereo not shown) [[XI-24], N-{4-[2-(4-fluorophenyl)-5,6-dihydro-4H-pyrrolo[1,2-b]pyrazol-3-yl]pyridin-2-yl}tetrahydrofuran-3-carboxamide], 1.69.

The compound `O=C(CC1CC1)Nc1cc(-c2c(-c3csc(Cl)c3)nn3c2CCC3)ccn1` [[XI-25], N-{4-[2-(5-chloro-3-thienyl)-5,6-dihydro-4H-pyrrolo[1,2-b]pyrazol-3-yl]pyridin-2-yl}-2-cyclopropylacetamide] displayed a chromatographic logP in data set [4] (pH 2.3) of 2.4.

`CCC1CCc2c(-c3ccnc(NC(=O)CC4CC4)c3)c(-c3ccc(F)cc3)nn21` (stereo not shown) [[XI-26], 2-cyclopropyl-N-{4-[6-ethyl-2-(4-fluorophenyl)-5,6-dihydro-4H-pyrrolo[1,2-b]pyrazol-3-yl]pyridin-2-yl}acetamide] registered a chromatographic logP in data set [4] (pH 2.3) of 2.81. Turning to `O=C(Nc1cc(-c2c(-c3ccc(F)cc3)nn3c2CCC3)ccn1)C1CCOCC1` [[XI-27], N-{4-[2-(4-fluorophenyl)-5,6-dihydro-4H-pyrrolo[1,2-b]pyrazol-3-yl]pyridin-2-yl}tetrahydro-2H-pyran-4-carboxamide], the chromatographic logP in data set [4] (pH 2.3) was determined as 1.77. As to `O=C(CCc1ccccc1)Nc1cc(-c2c(-c3ccc(F)cc3)nn3c2CCC3)ccn1` [[XI-28], N-{4-[2-(4-fluorophenyl)-5,6-dihydro-4H-pyrrolo[1,2-b]pyrazol-3-yl]pyridin-2-yl}-3-phenylpropanamide], the chromatographic logP in data set [4] (pH 2.3) stood at 2.62. The compound `O=C(CCCCO)CC(=O)c1ccc(F)cc1` [[XIII-4], 1-(4-fluorophenyl)-7-hydroxyheptane-1,3-dione] displayed a chromatographic logP in data set [4] (pH 2.7) of 2.3. For the compound `OCCCc1cc(-c2ccc(F)cc2)n[nH]1` [[XIV-1], 3-[3-(4-fluorophenyl)-1H-pyrazol-5-yl]propan-1-ol], the figures for the chromatographic logP in data set [4] (pH 2.3) and in data set [4] (pH 2.7) were 1.5 and 1.51, respectively. For `OCCCc1cc(-c2ccc(F)c(F)c2)n[nH]1` [[XIV-2], 3-[3-(3,4-difluorophenyl)-1H-pyrazol-5-yl]propan-1-ol] the same measures were 1.73 and 1.73. On to `OCCCc1cc(-c2ccc(F)c(Cl)c2)n[nH]1` [[XIV-3], 3-[3-(3-chloro-4-fluorophenyl)-1H-pyrazol-5-yl]propan-1-ol], for which the values for the chromatographic logP in data set [4] (pH 2.3) and in data set [4] (pH 2.7) were 1.97 and 1.96, respectively. Consider `OCCCCc1cc(-c2ccc(F)cc2)n[nH]1` [[XIV-4], 4-[3-(4-fluorophenyl)-1H-pyrazol-5-yl]butan-1-ol], for which the chromatographic logP in data set [4] (pH 2.3) and in data set [4] (pH 2.7) was 1.72 throughout.

As to `CC(CCO)c1cc(-c2ccc(F)cc2)n[nH]1` (stereo not shown) [[XIV-5], 3-[3-(4-fluorophenyl)-1H-pyrazol-5-yl]butan-1-ol], the chromatographic logP in data set [4] (pH 2.3) and in data set [4] (pH 2.7) was 1.74 in each case.
